According to US20070219186A1, “Pyrazolo[1,5-A]pyrimidine derivatives and methods of use thereof” (priority 2006, published 2007):
pIC50: −log10 of the molar value. Like-named read-outs stand apart in the source and are kept apart here.

Molecular target: T1, human B-Raf (Homo sapiens, UniProt P15056)
T1 construct: Flag; GST; made in house; host or cells: Sf9 insect cells (B-Raf); E. coli (MEK1-GST)
Assay: B-Raf Kinase to MEK1 ELISA
Assay type: biochemical
Conditions: for inhibition at 10 µM: read-out: % Inhib./10 uM; for % Inhib./10 uM: single point assay
Outline: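 Read-out is a DELFIA europium signal from phospho-MEK1 (Ser217/221) antibody after capture of GST-MEK1 (50 nM final) on anti-GST plates. Phosphorylation comes from Sf9-expressed Flag/GST human B-Raf (~20 ng) with ATP/MgCl2, 60 min RT, pH 7.2 MOPS.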

[1] = median, cpd concentrations from 10 μM to 30 nM in half log dilutions, read-out: Median IC50

T1 sequence (P15056 whole entry): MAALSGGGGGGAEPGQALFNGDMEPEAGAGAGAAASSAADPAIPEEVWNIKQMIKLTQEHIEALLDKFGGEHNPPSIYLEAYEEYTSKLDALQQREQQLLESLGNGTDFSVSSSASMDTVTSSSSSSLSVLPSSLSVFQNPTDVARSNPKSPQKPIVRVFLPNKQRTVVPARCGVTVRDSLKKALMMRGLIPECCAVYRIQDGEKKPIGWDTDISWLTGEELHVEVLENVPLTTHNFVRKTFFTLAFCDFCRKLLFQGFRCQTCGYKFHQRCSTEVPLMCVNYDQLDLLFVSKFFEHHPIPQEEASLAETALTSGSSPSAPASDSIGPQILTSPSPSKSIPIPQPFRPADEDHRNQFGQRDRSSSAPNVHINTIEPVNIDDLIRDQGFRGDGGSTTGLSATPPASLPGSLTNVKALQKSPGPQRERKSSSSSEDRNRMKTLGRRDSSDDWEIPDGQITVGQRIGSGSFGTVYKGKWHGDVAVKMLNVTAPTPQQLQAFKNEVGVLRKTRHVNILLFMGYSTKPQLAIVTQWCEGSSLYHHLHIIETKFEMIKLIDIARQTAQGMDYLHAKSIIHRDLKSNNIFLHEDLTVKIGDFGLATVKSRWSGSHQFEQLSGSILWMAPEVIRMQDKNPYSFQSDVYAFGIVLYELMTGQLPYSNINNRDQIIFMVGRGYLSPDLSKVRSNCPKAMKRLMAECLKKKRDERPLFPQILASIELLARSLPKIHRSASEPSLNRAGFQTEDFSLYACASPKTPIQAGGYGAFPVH

SMILES	pIC50 [1]	inhibition at 10 µM [%]	pIC50	% Inhib./10 uM [%]
O=C(Nc1cccc(-c2ccnc3cc(-c4ccnc(NCCCn5ccnc5)c4)nn23)c1)c1cccc(C(F)(F)F)c1 [Example 262, N-{3-[2-(2-{[3-(1H-imidazol-1-yl)propyl]amino}pyridin-4-yl)pyrazolo[1,5-a]pyrimidin-7-yl]phenyl}-3-(trifluoromethyl)benzamide]	7.18	98		
O=C(Nc1cccc(-c2ccnc3cc(-c4ccnc(NCCN5CCC(O)CC5)c4)nn23)c1)c1cccc(C(F)(F)F)c1 [Example 263, N-{3-[2-(2-{[2-(4-hydroxypiperidin-1-yl)ethyl]amino}pyridin-4-yl)pyrazolo[1,5-a]pyrimidin-7-yl]phenyl}-3-(trifluoromethyl)benzamide]			7.18	98
O=C(Nc1cccc(-c2ccnc3cc(-c4ccnc(NCCN5CCCCC5)c4)nn23)c1)c1cccc(C(F)(F)F)c1 [Example 264, N-[3-(2-{2-[(2-piperidin-1-ylethyl)amino]pyridin-4-yl}pyrazolo[1,5-a]pyrimidin-7-yl)phenyl]-3-(trifluoromethyl)benzamide]	7.02	97		
CN(C)CCNc1cc(-c2cc3nccc(-c4cccc(NC(=O)c5cccc(C(F)(F)F)c5)c4)n3n2)ccn1 [Example 266, N-{3-[2-(2-{[2-(dimethylamino)ethyl]amino}pyridin-4-yl)pyrazolo[1,5-a]pyrimidin-7-yl]phenyl}-3-(trifluoromethyl)benzamide]			7.27	100
O=C(Nc1cccc(-c2ccnc3cc(-c4ccnc(NCCN5CCNC5=O)c4)nn23)c1)c1cccc(C(F)(F)F)c1 [Example 268, N-{3-[2-(2-{[2-(2-oxoimidazolidin-1-yl)ethyl]amino}pyridin-4-yl)pyrazolo[1,5-a]pyrimidin-7-yl]phenyl}-3-(trifluoromethyl)benzamide]	6.96	96		
CN(CCCN)c1cc(-c2cc3nccc(-c4cccc(NC(=O)c5cccc(C(F)(F)F)c5)c4)n3n2)ccn1 [Example 269, N-[3-(2-{2-[(3-aminopropyl)(methyl)amino]pyridin-4-yl}pyrazolo[1,5-a]pyrimidin-7-yl)phenyl]-3-(trifluoromethyl)benzamide]	5.56	78		
CN(CCN)c1cc(-c2cc3nccc(-c4cccc(NC(=O)c5cccc(C(F)(F)F)c5)c4)n3n2)ccn1 [Example 270, N-[3-(2-{2-[(2-aminoethyl)(methyl)amino]pyridin-4-yl}pyrazolo[1,5-a]pyrimidin-7-yl)phenyl]-3-(trifluoromethyl)benzamide]	5.69	80		
NC(=O)c1cccc(-c2cnn3c(-c4cccc(NC(=O)c5cccc(C(F)(F)F)c5)c4)ccnc23)c1 [Example 271, N-(3-{3-[3-(aminocarbonyl)phenyl]pyrazolo[1,5-a]pyrimidin-7-yl}phenyl)-3-(trifluoromethyl)benzamide]		93	7.24	
CN(C)Cc1ccccc1-c1cnn2c(-c3cccc(NC(=O)c4cccc(C(F)(F)F)c4)c3)ccnc12 [Example 272, N-[3-(3-{2-[(dimethylamino)methyl]phenyl}pyrazolo[1,5-a]pyrimidin-7-yl)phenyl]-3-(trifluoromethyl)benzamide]	6.93	92		
CN(C)Cc1cccc(-c2cnn3c(-c4cccc(NC(=O)c5cccc(C(F)(F)F)c5)c4)ccnc23)c1 [Example 273, N-[3-(3-{3-[(dimethylamino)methyl]phenyl}pyrazolo[1,5-a]pyrimidin-7-yl)phenyl]-3-(trifluoromethyl)benzamide]	7.36	97		
O=C(Nc1cccc(-c2ccnc3c(-c4cn[nH]c4)cnn23)c1)c1cccc(C(F)(F)F)c1 [Example 275, N-{3-[3-(1H-pyrazol-4-yl)pyrazolo[1,5-a]pyrimidin-7-yl]phenyl}-3-(trifluoromethyl)benzamide]		89	7.08	
CC(C)(C)OC(=O)n1cc(-c2cnn3c(-c4cccc(NC(=O)c5cccc(C(F)(F)F)c5)c4)ccnc23)cn1 [Example 276, tert-butyl 4-[7-(3-{[3-(trifluoromethyl)benzoyl]amino}phenyl)pyrazolo[1,5-a]pyrimidin-3-yl]-1H-pyrazole-1-carboxylate]	5.69	58		
Nc1ccc(-c2cnn3c(-c4cccc(NC(=O)c5cccc(C(F)(F)F)c5)c4)ccnc23)cn1 [Example 278, N-{3-[3-(6-aminopyridin-3-yl)pyrazolo[1,5-a]pyrimidin-7-yl]phenyl}-3-(trifluoromethyl)benzamide]		96	6.95	
CN1CCN(CCCC#Cc2cnn3c(-c4cccc(NC(=O)c5cccc(C(F)(F)F)c5)c4)ccnc23)CC1 [Example 279, N-(3-{3-[5-(4-methylpiperazin-1-yl)pent-1-yn-1-yl]pyrazolo[1,5-a]pyrimidin-7-yl}phenyl)-3-(trifluoromethyl)benzamide]			6.07	
CN(C)CCc1ccccc1-c1cnn2c(-c3cccc(NC(=O)c4cccc(C(F)(F)F)c4)c3)ccnc12 [Example 280, N-[3-(3-{2-[2-(dimethylamino)ethyl]phenyl}pyrazolo[1,5-a]pyrimidin-7-yl)phenyl]-3-(trifluoromethyl)benzamide]	6.50	76		
CN(C)CCc1cccc(-c2cnn3c(-c4cccc(NC(=O)c5cccc(C(F)(F)F)c5)c4)ccnc23)c1 [Example 281, N-[3-(3-{3-[2-(dimethylamino)ethyl]phenyl}pyrazolo[1,5-a]pyrimidin-7-yl)phenyl]-3-(trifluoromethyl)benzamide]	7.39	98		
O=C(Nc1cccc(-c2ccnc3c(C#CCCCN4CCOCC4)cnn23)c1)c1cccc(C(F)(F)F)c1 [Example 282, N-{3-[3-(5-morpholin-4-ylpent-1-yn-1-yl)pyrazolo[1,5-a]pyrimidin-7-yl]phenyl}-3-(trifluoromethyl)benzamide]		79	6.26	
CNc1ccc(-c2cnn3c(-c4cccc(NC(=O)c5cccc(C(F)(F)F)c5)c4)ccnc23)cn1 [Example 284, N-(3-{3-[6-(methylamino)pyridin-3-yl]pyrazolo[1,5-a]pyrimidin-7-yl}phenyl)-3-(trifluoromethyl)benzamide]	7.11	92		
O=C(Nc1cccc(-c2ccnc3c(-c4ccc(CO)cc4)cnn23)c1)c1cccc(C(F)(F)F)c1 [Example 285, N-(3-{3-[4-(hydroxymethyl)phenyl]pyrazolo[1,5-a]pyrimidin-7-yl}phenyl)-3-(trifluoromethyl)benzamide]		93	7.08	
O=C(Nc1cccc(-c2ccnc3c(-c4cccc(CO)c4)cnn23)c1)c1cccc(C(F)(F)F)c1 [Example 286, N-(3-{3-[3-(hydroxymethyl)phenyl]pyrazolo[1,5-a]pyrimidin-7-yl}phenyl)-3-(trifluoromethyl)benzamide]		77	6.84	
O=C(Nc1cccc(-c2ccnc3cc(-c4ccc(Br)cc4)nn23)c1)c1cccc(C(F)(F)F)c1 [Example 287, N-{3-[2-(4-bromophenyl)pyrazolo[1,5-a]pyrimidin-7-yl]phenyl}-3-(trifluoromethyl)benzamide]	< 5.00	12		
CN(C)S(=O)(=O)c1ccc(-c2cnn3c(-c4cccc(NC(=O)c5cccc(C(F)(F)F)c5)c4)ccnc23)cc1 [Example 288, N-[3-(3-{4-[(dimethylamino)sulfonyl]phenyl}pyrazolo[1,5-a]pyrimidin-7-yl)phenyl]-3-(trifluoromethyl)benzamide]	< 5.00	35		
CN(C)CCc1ccc(-c2cnn3c(-c4cccc(NC(=O)c5cccc(C(F)(F)F)c5)c4)ccnc23)cc1 [Example 289, N-[3-(3-{4-[2-(dimethylamino)ethyl]phenyl}pyrazolo[1,5-a]pyrimidin-7-yl)phenyl]-3-(trifluoromethyl)benzamide]	7.59	86		
O=C(Nc1cccc(-c2ccnc3c(-c4ccccc4C(F)(F)F)cnn23)c1)c1cccc(C(F)(F)F)c1 [Example 290, 3-(trifluoromethyl)-N-(3-{3-[2-(trifluoromethyl)phenyl]pyrazolo[1,5-a]pyrimidin-7-yl}phenyl)benzamide]		67	6.44	
O=C(Nc1cccc(-c2ccnc3c(-c4cccc(C(F)(F)F)c4)cnn23)c1)c1cccc(C(F)(F)F)c1 [Example 291, 3-(trifluoromethyl)-N-(3-{3-[3-(trifluoromethyl)phenyl]pyrazolo[1,5-a]pyrimidin-7-yl}phenyl)benzamide]	< 5.00	33		
O=C(Nc1cccc(-c2ccnc3c(-c4ccc(C(F)(F)F)cc4)cnn23)c1)c1cccc(C(F)(F)F)c1 [Example 292, 3-(trifluoromethyl)-N-(3-{3-[4-(trifluoromethyl)phenyl]pyrazolo[1,5-a]pyrimidin-7-yl}phenyl)benzamide]	< 5.00	26		
N#Cc1ccccc1-c1cnn2c(-c3cccc(NC(=O)c4cccc(C(F)(F)F)c4)c3)ccnc12 [Example 293, N-{3-[3-(2-cyanophenyl)pyrazolo[1,5-a]pyrimidin-7-yl]phenyl}-3-(trifluoromethyl)benzamide]		55	5.13	
N#Cc1cccc(-c2cnn3c(-c4cccc(NC(=O)c5cccc(C(F)(F)F)c5)c4)ccnc23)c1 [Example 294, N-{3-[3-(3-cyanophenyl)pyrazolo[1,5-a]pyrimidin-7-yl]phenyl}-3-(trifluoromethyl)benzamide]	< 5.00	42		
N#Cc1ccc(-c2cnn3c(-c4cccc(NC(=O)c5cccc(C(F)(F)F)c5)c4)ccnc23)cc1 [Example 295, N-{3-[3-(4-cyanophenyl)pyrazolo[1,5-a]pyrimidin-7-yl]phenyl}-3-(trifluoromethyl)benzamide]	< 5.00	41		
